Measurements reported in patent publication US11440935B2, “3″,5″-dimethoxybenzoyl-3′-amino-3′-deoxy adenosine-5′-triphosphates and pharmaceutical uses thereof” (Danmir Therapeutics, LLC, priority 2018, dated 2022).

Legend:
P2Y2 = target: T1, P2Y2 (Homo sapiens, UniProt P41231); experiment: PDSP functional assay in vitro (PRESTO-Tango), agonist/antagonist; format: cell-based
T1 construct: expressed in transfected cells
Protocol: (§1) The assays were carried out utilizing the method set forth in Kroeze et al., PRESTO-Tango as an open-source resource for interrogation of the druggable human GPCRome, Nat. Struct. Mol. Biol. 2015 May; 22(5):362-9.

P2Y12 = target: T2, P2Y12 (Homo sapiens, UniProt Q9H244); experiment: as above; format: cell-based
T2 construct: expressed in transfected cells
Protocol: as §1

P2Y4 = target: T3, P2Y4 (Homo sapiens, UniProt P51582); experiment: as above; format: cell-based
T3 construct: expressed in transfected cells
Protocol: as §1

P2Y1 = target: T4, P2Y1 (Homo sapiens, UniProt P47900); experiment: as above; format: cell-based
T4 construct: expressed in transfected cells
Protocol: as §1

P2Y14 = target: T5, P2Y14 (Homo sapiens, UniProt Q15391); experiment: as above; format: cell-based
T5 construct: expressed in transfected cells
T5 sequence (Q15391 1-338): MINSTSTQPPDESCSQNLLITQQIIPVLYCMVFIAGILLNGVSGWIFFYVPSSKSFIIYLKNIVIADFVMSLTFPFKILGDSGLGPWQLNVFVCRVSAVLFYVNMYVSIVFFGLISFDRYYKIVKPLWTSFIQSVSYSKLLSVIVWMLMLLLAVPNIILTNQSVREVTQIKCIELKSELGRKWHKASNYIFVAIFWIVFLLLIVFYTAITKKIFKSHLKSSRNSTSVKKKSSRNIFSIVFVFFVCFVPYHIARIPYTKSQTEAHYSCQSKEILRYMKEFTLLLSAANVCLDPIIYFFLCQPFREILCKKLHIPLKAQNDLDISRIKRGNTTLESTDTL
Protocol: as §1

P2Y13 = target: T6, P2Y13 (Homo sapiens, UniProt Q9BPV8); experiment: as above; format: cell-based
T6 construct: expressed in transfected cells
T6 sequence (Q9BPV8 1-354): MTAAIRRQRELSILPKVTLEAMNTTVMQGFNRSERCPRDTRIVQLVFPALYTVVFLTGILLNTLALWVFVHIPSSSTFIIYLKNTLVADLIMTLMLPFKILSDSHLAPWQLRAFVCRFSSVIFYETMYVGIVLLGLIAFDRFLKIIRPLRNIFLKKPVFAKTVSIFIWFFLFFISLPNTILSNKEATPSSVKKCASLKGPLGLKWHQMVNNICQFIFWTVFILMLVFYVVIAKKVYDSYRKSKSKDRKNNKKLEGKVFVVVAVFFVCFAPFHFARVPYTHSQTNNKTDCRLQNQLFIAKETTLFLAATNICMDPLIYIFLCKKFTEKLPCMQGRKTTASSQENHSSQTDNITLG
Protocol: as §1

P2Y6 = target: T7, P2Y6 (Homo sapiens, UniProt Q15077); experiment: as above; format: cell-based
T7 construct: expressed in transfected cells
Protocol: as §1

[1] = tested on: nodose ganglion vagal sensory nerve terminals; experiment: ATP-induced neural action potentials in guinea-pig lung-vagus preparation ex vivo; details: ATP 10 μM; DT-0111 1 mM; innervated guinea-pig lung ex vivo
Protocol: The innervated guinea-pig lung preparation was prepared as was described in Undem B J, Chuaychoo B, Lee M G, Weinreich D, Myers A C, Kollarik M. Subtypes of vagal afferent C-fibres in guinea-pig lungs. J Physiol 2004; 556: 905-917; Weigand L A, Ford A P, Undem B J. A role for ATP in bronchoconstriction-induced activation of guinea pig vagal intrapulmonary C-fibres. J Physiol 2012; 590: 4109-4120. The contents of Undem et al. and Weigand et al. are incorporated herein for the purpose of the preparation of the innervated guinea-pig lung preparation. The response to ATP (10 μM; 1 ml, slowly infused into trachea and pulmonary artery) was assessed as the number of action potentials it elicited. Two control responses 15 minutes apart were recorded. There was not differences in the number of action potentials evoked between the first and second response (p>0.1). Subsequently, the lung superfused and perfused via both trachea and pulmonary artery for 15 min with increasing concentration of DT-0111 and the ATP challenge was repeated. The data were quantified as the total number of action potentials evoked and the peak frequency (Hz) as measured by the most action potentials evoked in any 1 s bin. DT-0111 was prepared in distilled water as a 10 mM solution, and aliquots were stored frozen at −20° C. (1-5 days). […]

T7 sequence (Q15077 whole entry): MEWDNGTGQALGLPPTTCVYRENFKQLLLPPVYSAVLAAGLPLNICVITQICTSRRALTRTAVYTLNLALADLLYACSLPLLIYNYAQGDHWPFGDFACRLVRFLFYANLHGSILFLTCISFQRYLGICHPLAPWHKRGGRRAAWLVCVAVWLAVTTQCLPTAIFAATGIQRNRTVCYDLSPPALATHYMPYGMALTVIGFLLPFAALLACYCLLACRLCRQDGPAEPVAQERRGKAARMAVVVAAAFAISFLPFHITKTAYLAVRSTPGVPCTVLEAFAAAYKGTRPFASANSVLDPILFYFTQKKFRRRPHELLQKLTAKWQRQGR
T1 sequence (P41231 whole entry): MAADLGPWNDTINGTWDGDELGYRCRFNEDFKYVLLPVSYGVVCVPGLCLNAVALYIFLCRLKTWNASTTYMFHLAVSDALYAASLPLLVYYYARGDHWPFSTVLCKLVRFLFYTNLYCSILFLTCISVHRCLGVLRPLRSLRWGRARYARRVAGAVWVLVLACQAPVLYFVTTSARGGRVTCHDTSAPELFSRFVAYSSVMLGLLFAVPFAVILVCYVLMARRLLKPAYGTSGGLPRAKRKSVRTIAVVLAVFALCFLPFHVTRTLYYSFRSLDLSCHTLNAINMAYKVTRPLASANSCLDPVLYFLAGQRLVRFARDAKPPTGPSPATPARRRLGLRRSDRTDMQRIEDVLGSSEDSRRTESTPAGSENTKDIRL
T2 sequence (Q9H244 whole entry): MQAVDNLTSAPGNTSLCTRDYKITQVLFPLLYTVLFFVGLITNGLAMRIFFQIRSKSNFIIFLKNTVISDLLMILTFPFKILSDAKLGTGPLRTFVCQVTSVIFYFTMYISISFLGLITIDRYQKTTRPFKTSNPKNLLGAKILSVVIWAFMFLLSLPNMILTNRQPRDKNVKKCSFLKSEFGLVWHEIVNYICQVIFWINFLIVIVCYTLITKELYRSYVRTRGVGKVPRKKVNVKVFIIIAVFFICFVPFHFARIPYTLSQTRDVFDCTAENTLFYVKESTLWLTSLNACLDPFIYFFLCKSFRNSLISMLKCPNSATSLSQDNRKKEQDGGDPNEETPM
T4 sequence (P47900 whole entry): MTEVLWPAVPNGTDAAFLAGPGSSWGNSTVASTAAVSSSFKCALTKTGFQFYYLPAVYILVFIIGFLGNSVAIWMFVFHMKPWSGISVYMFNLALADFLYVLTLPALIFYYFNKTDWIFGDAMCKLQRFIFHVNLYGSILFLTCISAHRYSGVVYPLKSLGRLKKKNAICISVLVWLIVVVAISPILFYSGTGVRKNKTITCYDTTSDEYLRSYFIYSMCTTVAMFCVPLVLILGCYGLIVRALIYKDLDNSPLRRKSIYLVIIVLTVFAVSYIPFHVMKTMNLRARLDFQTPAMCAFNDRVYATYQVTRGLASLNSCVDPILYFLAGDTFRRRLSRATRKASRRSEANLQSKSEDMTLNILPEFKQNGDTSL
T3 sequence (P51582 whole entry): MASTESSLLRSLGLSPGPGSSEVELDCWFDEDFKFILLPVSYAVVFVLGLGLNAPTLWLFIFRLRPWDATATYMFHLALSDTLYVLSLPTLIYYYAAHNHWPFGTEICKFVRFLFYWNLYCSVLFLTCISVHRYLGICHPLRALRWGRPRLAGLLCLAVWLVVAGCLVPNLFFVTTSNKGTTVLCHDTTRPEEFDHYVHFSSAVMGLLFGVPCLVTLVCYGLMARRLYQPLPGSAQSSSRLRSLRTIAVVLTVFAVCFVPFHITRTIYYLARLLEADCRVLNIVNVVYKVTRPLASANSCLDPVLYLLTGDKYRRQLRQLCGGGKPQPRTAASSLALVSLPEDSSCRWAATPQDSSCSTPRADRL

For “Sodium 3′-N-(3,5-dimethoxybenzoyl)-3′-deoxy-β-D-adenosine 5′-triphosphate [DT-0111]”, the “agonist or antagonist action at receptor” value (P2Y2) was “does not act as an agonist or antagonist”, the “agonist or antagonist action at receptor” value (P2Y12) was “does not act as an agonist or antagonist” and the “agonist or antagonist action at receptor” value (P2Y4) was “does not act as an agonist or antagonist”. For the same substance, the “agonist or antagonist action at receptor” value (P2Y1) was “does not act as an agonist or antagonist”, the “agonist or antagonist action at receptor” value (P2Y14) was “does not act as an agonist or antagonist” and the “agonist or antagonist action at receptor” value (P2Y13) was “does not act as an agonist or antagonist”. The “agonist or antagonist action at receptor” value (P2Y6) was “does not act as an agonist or antagonist” and the “effect on ATP-induced action potentials” value [1] was “markedly suppresses the effect of ATP”.
